By pIC50 is commonly meant −log10 of the IC50, conventionally taken in molar units.

Consider ten compounds from patent publication US20250122191A1, “COMPOUNDS AS BCL-2 INHIBITORS” (Fochon Biosciences, Ltd, priority 2021, published 2025).

What all share (type): cell-based
One experiment relates to Toledo cells. The experiment in a line: Cell proliferation assay (MTS), Toledo cells. To be noted: Homo sapiens, 72 h. The essentials: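 Toledo cells (RPMI-1640, 10% FBS) seeded at 30000 cells/well, rested 4 h, then exposed 72 h at 37 °C, 5% CO2 to compound at nine final concentrations, 1.5–10000 nM. Viability by MTS (2 h), absorbance at 490 nm. IC50 from the concentration-response.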

The subject of a further experiment is RS4;11-BCL-2 G101V cells. The experiment in a line: Cell proliferation assay (MTS), RS4;11-BCL-2 G101V engineered cells. To be noted: Homo sapiens, 120 h, read-out: RS4, 11 BCL2-G101V IC50. The essentials: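 Cells were plated, allowed to settle 4 h (G101V, F104L) or 24 h (D103E, D103Y), and treated with serially diluted compound (10000 down to 1.5 nM). After 120 h or 72 h respectively at 37 °C, MTS was added for 2 h and absorbance at 490 nm gave IC50 values.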

The next experiment relates to RS4;11-BCL-2 D103E cells. Briefly: Cell proliferation assay (MTS), RS4;11-BCL-2 D103E engineered cells. The conditions noted are these: Homo sapiens, 72 h, read-out: RS4, 11 BCL2-D103E IC50. From the text:
MTS testing kit was purchased from Promega (Madison, WI, USA). The RPMI-1640, Fetal bovine serum and Penicillin-Streptomycin were purchased from BI (Biological Industries, Beit Haemek, Israel). Puromycin was purchased from Beyotime (shanghai, China). Dimethyl sulfoxide (DMSO) was purchased from Sigma (St. Louis., MO, USA). RS4;11-BCL-2 G101V (Cobioer Lot. #: CBD2021063013P4), RS4;11-BCL-2 D103E (Cobioer Lot. #: CBD2021063013P4), RS4;11-BCL-2 D103Y (Cobioer Lot. #: CBD2022012101P4) and RS4;11-BCL-2 F104L (Cobioer Lot. #: CBD2021063014P4) cells were cultured in RPMI1640 supplemented with 1 ug/mL puromycin, 100 U/mL Penicillin-Streptomycin and 10% FBS.
To investigate whether a compound is able to inhibit the activity of BCL-2 mutation in cells, a mechanism-based assay using engineered cell lines stably overexpressing BCL-2 mutation (RS4;11-BCL-2 G101V, RS4;11-BCL-2 D103E, RS4;11-BCL-2 D103Y, and RS4;11-BCL-2 F104L) was developed. In this assay, the inhibition of BCL-2 mutation was reflected by the inhibition of cell proliferation of engineered RS4;11 cells. Cells were plated into 96-well plates at optimized cell density (RS4;11-BCL-2 G101V: 5000 cells/well; RS4;11-BCL-2 D103E: 7500 cells/well; RS4;11-BCL-2 D103Y: 7500 cells/well; RS4;11-BCL-2 F104L: 5000 cells/well). Plates were incubated at 37° C., with 5% CO2 for 4 h (RS4;11-BCL-2 G101V, RS4;11-BCL-2 F104L) and 24 h (RS4;11-BCL-2 D103E, RS4;11-BCL-2 D103Y), respectively. Compounds were serially diluted and added to the plates with the final concentrations of 10000, 3333.3, 1111.1, 370.4, 123.5, 41.2, 13.7, 4.6 and 1.5 nM. Plates were incubated at 37° C., with 5% CO2 for 120 h (RS4; 11-BCL-2 G101V, RS4; 11-BCL-2 F104L) and 72 h (RS4;11-BCL-2 D103E, RS4;11-BCL-2 D103Y), respectively. 20 μl MTS was added into each well and the plates were incubated at 37° C., with 5% CO2 exactly for 2 h. The absorbance was measured by a microplate reader at 490 nm. IC50 values were calculated using GraphPad Prism 8.0 software.

Each structure is given as a SMILES string. pIC50: −log10 of the molar value.

Regarding `CCOc1nc2[nH]cc(F)c2cc1Oc1cc(N2CCC3(CC2)CC(N2CCN(CC)C[C@H]2c2ccccc2C(C)C)C3)ccc1C(=O)NS(=O)(=O)c1cnc(NC[C@H]2CC[C@](C)(O)CC2)c([N+](=O)[O-])c1` [Example 141, 2-((6-ethoxy-3-fluoro-1H-pyrrolo[2,3-b]pyridin-5-yl)oxy)-4-(2-((R)-4-ethyl-2-(2-isopropylphenyl)piperazin-1-yl)-7-azaspiro [3.5]nonan-7-yl)-N-((6-((((1r,4r)-4-hydroxy-4-methylcyclohexyl)methyl)amino)-5-nitropyridin-3-yl)sulfonyl)benzamide], the pIC50 with Toledo cells, with RS4;11-BCL-2 G101V cells and in the experiment on RS4;11-BCL-2 D103E cells was 9.00 throughout.

As for `COc1ccc(CN2CCN(C3CC4(CCN(c5ccc(C(=O)NS(=O)(=O)c6cnc(NC[C@H]7CC[C@](C)(O)CC7)c([N+](=O)[O-])c6)c(Oc6cnc7[nH]cc(F)c7c6)c5)CC4)C3)[C@H](c3ccccc3C(C)C)C2)c2nc(C)oc12` [Example 244, 2-((3-fluoro-1H-pyrrolo[2,3-b]pyridin-5-yl)oxy)-N-((6-((((1r,4r)-4-hydroxy-4-methylcyclohexyl)methyl)amino)-5-nitropyridin-3-yl)sulfonyl)-4-(2-((R)-2-(2-isopropylphenyl)-4-((7-methoxy-2-methylbenzo[d]oxazol-4-yl)methyl)piperazin-1-yl)-7-azaspiro[3.5]nonan-7-yl)benzamide], the pIC50 in the experiment on Toledo cells, in the experiment with RS4;11-BCL-2 G101V cells and with RS4;11-BCL-2 D103E cells was 9.00 in each case.

In the case of `COc1c(F)cc(CN2CCN(C3CC4(CCN(c5ccc(C(=O)NS(=O)(=O)c6cnc(NC[C@H]7CC[C@](C)(O)CC7)c([N+](=O)[O-])c6)c(Oc6cnc7[nH]cc(F)c7c6)c5)CC4)C3)[C@H](c3ccccc3C(C)C)C2)cc1F` [Example 248, 4-(2-((R)-4-(3,5-difluoro-4-methoxybenzyl)-2-(2-isopropylphenyl)piperazin-1-yl)-7-azaspiro[3.5]nonan-7-yl)-2-((3-fluoro-1H-pyrrolo[2,3-b]pyridin-5-yl)oxy)-N-((6-((((1r,4r)-4-hydroxy-4-methylcyclohexyl)methyl)amino)-5-nitropyridin-3-yl)sulfonyl)benzamide], the pIC50 in the experiment on Toledo cells is 9.00; with RS4;11-BCL-2 G101V cells, 9.00; in the experiment on RS4;11-BCL-2 D103E cells, 8.52.

Take `COCCN1CCN(C2CC3(CCN(c4ccc(C(=O)NS(=O)(=O)c5cnc(NC[C@H]6CC[C@](C)(O)CC6)c([N+](=O)[O-])c5)c(Oc5cc6c(F)c[nH]c6nc5OC)c4)CC3)C2)[C@H](c2ccccc2C(C)C)C1` [Example 129, 2-((3-fluoro-6-methoxy-1H-pyrrolo[2,3-b]pyridin-5-yl)oxy)-N-((6-((((1r,4r)-4-hydroxy-4-methylcyclohexyl)methyl)amino)-5-nitropyridin-3-yl)sulfonyl)-4-(2-((R)-2-(2-isopropylphenyl)-4-(2-methoxyethyl)piperazin-1-yl)-7-azaspiro[3.5]nonan-7-yl)benzamide]: the pIC50 in the experiment on Toledo cells was 9.00; in the experiment on RS4;11-BCL-2 D103E cells, 8.52.

Take `COc1nc2[nH]cc(F)c2cc1Oc1cc(N2CCC3(CC2)CC(N2CCN(C4CCC(OC)CC4)C[C@H]2c2ccccc2C(C)C)C3)ccc1C(=O)NS(=O)(=O)c1cnc(NC[C@H]2CC[C@](C)(O)CC2)c([N+](=O)[O-])c1` (stereo partly drawn) [Example 325, 2-((3-fluoro-6-methoxy-1H-pyrrolo[2,3-b]pyridin-5-yl)oxy)-N-((6-((((1r,4r)-4-hydroxy-4-methylcyclohexyl)methyl)amino)-5-nitropyridin-3-yl)sulfonyl)-4-(2-((R)-2-(2-isopropylphenyl)-4-(4-methoxycyclohexyl)piperazin-1-yl)-7-azaspiro[3.5]nonan-7-yl)benzamide]: the negative logarithm of the IC50 (pIC50) with RS4;11-BCL-2 G101V cells and with RS4;11-BCL-2 D103E cells was 9.00 each time.

With `CC(C)c1ccccc1[C@@H]1CN(Cc2ccc(S(C)(=O)=O)cc2)CCN1C1CC2(CCN(c3ccc(C(=O)NS(=O)(=O)c4cnc(NC[C@H]5CC[C@](C)(O)CC5)c([N+](=O)[O-])c4)c(Oc4cnc5[nH]cc(F)c5c4)c3)CC2)C1` [Example 329, 2-((3-fluoro-1H-pyrrolo[2,3-b]pyridin-5-yl)oxy)-N-((6-((((1r,4r)-4-hydroxy-4-methylcyclohexyl)methyl)amino)-5-nitropyridin-3-yl)sulfonyl)-4-(2-((R)-2-(2-isopropylphenyl)-4-(4-(methylsulfonyl)benzyl)piperazin-1-yl)-7-azaspiro[3.5]nonan-7-yl)benzamide], the pIC50 with Toledo cells and in the experiment on RS4;11-BCL-2 D103E cells was 9.00 each time.

In the case of `CC(C)c1ccccc1[C@@H]1CN(C(C)C)CCN1C1CC2(CCN(c3ccc(C(=O)NS(=O)(=O)c4cnc(NC[C@H]5CC[C@](C)(O)CC5)c([N+](=O)[O-])c4)c(Oc4cnc5[nH]cc(F)c5c4)c3)CC2)C1` [Example 185, 2-((3-fluoro-1H-pyrrolo[2,3-b]pyridin-5-yl)oxy)-N-((6-((((1r,4r)-4-hydroxy-4-methylcyclohexyl)methyl)amino)-5-nitropyridin-3-yl)sulfonyl)-4-(2-((R)-4-isopropyl-2-(2-isopropylphenyl)piperazin-1-yl)-7-azaspiro[3.5]nonan-7-yl)benzamide], the pIC50 in the experiment on RS4;11-BCL-2 G101V cells and with RS4;11-BCL-2 D103E cells was 9.00 in each case.

With `CCOc1nc2[nH]cc(F)c2cc1Oc1cc(N2CCC3(CC2)CC(N2CCN(Cc4cnc(C5CC5)c(OC)c4)C[C@H]2c2ccccc2C(C)C)C3)ccc1C(=O)NS(=O)(=O)c1cnc(NC[C@H]2CC[C@](C)(O)CC2)c([N+](=O)[O-])c1` [Example 253, 4-(2-((R)-4-((6-cyclopropyl-5-methoxypyridin-3-yl)methyl)-2-(2-isopropylphenyl)piperazin-1-yl)-7-azaspiro[3.5]nonan-7-yl)-2-((6-ethoxy-3-fluoro-1H-pyrrolo[2,3-b]pyridin-5-yl)oxy)-N-((6-((((1r,4r)-4-hydroxy-4-methylcyclohexyl)methyl)amino)-5-nitropyridin-3-yl)sulfonyl)benzamide], the negative-log IC50 (pIC50) in the experiment with RS4;11-BCL-2 G101V cells was 9.00; in the experiment on RS4;11-BCL-2 D103E cells, 8.52.

As to `COc1cc(CN2CCN(C3CC4(CCN(c5ccc(C(=O)NS(=O)(=O)c6cnc(NC[C@H]7CC[C@](C)(O)CC7)c([N+](=O)[O-])c6)c(Oc6cc7c(F)c[nH]c7nc6OC)c5)CC4)C3)[C@H](c3ccccc3C(C)C)C2)cnc1OC` [Example 123, 4-(2-((R)-4-((5,6-dimethoxypyridin-3-yl)methyl)-2-(2-isopropylphenyl)piperazin-1-yl)-7-azaspiro[3.5]nonan-7-yl)-2-((3-fluoro-6-methoxy-1H-pyrrolo[2,3-b]pyridin-5-yl)oxy)-N-((6-((((1r,4r)-4-hydroxy-4-methylcyclohexyl)methyl)amino)-5-nitropyridin-3-yl)sulfonyl)benzamide], the pIC50 in the experiment with RS4;11-BCL-2 G101V cells and in the experiment on RS4;11-BCL-2 D103E cells was 9.00 in each case.

With `CC(C)c1ccccc1[C@@H]1CN(CC2CCOCC2)CCN1C1CC2(CCN(c3ccc(C(=O)NS(=O)(=O)c4cnc(NC[C@H]5CC[C@](C)(O)CC5)c([N+](=O)[O-])c4)c(Oc4cnc5[nH]cc(F)c5c4)c3)CC2)C1` [Example 318, 2-((3-fluoro-1H-pyrrolo[2,3-b]pyridin-5-yl)oxy)-N-((6-((((1r,4r)-4-hydroxy-4-methylcyclohexyl)methyl)amino)-5-nitropyridin-3-yl)sulfonyl)-4-(2-((R)-2-(2-isopropylphenyl)-4-((tetrahydro-2H-pyran-4-yl)methyl)piperazin-1-yl)-7-azaspiro[3.5]nonan-7-yl)benzamide], the pIC50 in the experiment on RS4;11-BCL-2 G101V cells and in the experiment with RS4;11-BCL-2 D103E cells was 9.00 throughout.
